Test results: patent US11504431B2, “Formulations for the suprachoroidal space of an eye and methods” (Emory University, priority 2016, dated 2022)

Experiments:
[1] = tested on: SCS of rabbit eyes ex vivo; test: Ex vivo SCS microneedle injection, flat mount of 2D circumferential spread; parameters: species or system New Zealand White rabbit; conditions: in HBSS with 0.2 μm red-fluorescent particles, 25-150 μL, 3 minutes post-injection, mean±SEM
Procedure: Extraocular tissues were carefully removed from the rabbit ocular globe. To simulate a physiological intraocular pressure (IOP) of 10-12 mmHg, a water column was raised to ˜14 cm and connected to the eye via a 25-gauge needle penetrated through the optic nerve. A microneedle (750 μm in length, 33-gauge; Clearside Biomedical, Alpharetta, Ga.) attached to a 250 μL glass chromatography syringe (National Scientific, Rockwood, Tenn.) was used to make injections.
Depending on the experimental condition, each injection consisted of 25 to 150 μL of 0.5% (w/v) red-fluorescent particles (0.2 μm diameter; Excitation: 580 nm; Emission: 605 nm) and 0.025% (w/v) fluorescein suspended in Hank's Balanced Salt Solution (HBSS; Gibco, Life Technologies). After each injection, the needle was held in place for 1 minute to minimize reflux. The eye was then frozen via submersion in 100% ethanol chilled over dry ice 3 minutes post-injection depending on experimental condition.
After SCS injection and freezing, eyes were prepared to assess the 2D spread of particles and fluorescein. […]
A digital SLR camera (Canon 60D, Canon, Melville, N.Y.) with a 100 mm lens (Canon) was used to acquire brightfield and fluorescence images. […] The area of green and red fluorescence that was above threshold was calculated for each eye using ImageJ (National Institutes of Health, Bethesda, Md.). […]

rabbit SCS in vivo [2] = test: In vivo SCS injection, RetCam fluorescence fundus imaging of area coverage and co-localization; parameters: species or system New Zealand White rabbit
Text: Also investigated was the role of formulation and time on particle distribution in the SCS. The distribution of red-fluorescent particles suspended with green fluorescently-tagged formulation excipients in HBSS after injection into the SCS of live rabbits was imaged using red and green fluorescence simultaneously. Fluorescence was imaged using RetCam imaging, which was preferred to other non-contact fundus imaging methods, since it enabled visualization of the posterior pole as well as the far periphery (i.e., the injection site). The percentage of the SCS area in the composite images that had red/green fluorescence values at least 0.1% of the starting concentration was then calculated, and this calculation was used as a proxy of true coverage; and determined the incidence of co-localization of the red and green fluorescence greater than chance. […]
At predetermined time points, the animals were imaged with a modified RetCam II system (Clarity Medical Systems, Pleasanton, Calif.). […] The built-in fluorescein attachment was used to capture green fluorescence. For the red fluorescence, green light was generated by placing a 575±50 nm bandpass filter (Edmunds Optics) in line with the fiber optic line. A red-emission filter (610±10 nm, Omega Optical, Brattleboro, Vt.) was placed over the camera to capture red fluorescence. […]

rabbit SCS in vivo [3] = test: Clearance of fluorescein from the SCS by fundus microscopy, effect of liquid formulation; parameters: species or system New Zealand White rabbit
Procedure: After injection of a formulation into the SCS of an anesthetized rabbit, U/S B-scan was used to determine SCS thickness at multiple locations over time, from which the rate of SCS collapse was calculated, as shown at FIG. 9. In companion experiments, the approximate clearance rate of injected fluorescent material from the SCS was found by taking fluorescence fundus images in the rabbit eye in vivo over time until fluorescence was no longer visible.
Also investigated was the effect of liquid formulation viscosity on the timescale of clearance of fluorescein from the SCS. Using fundus microscopy, the time it took for there to be no visual evidence of fluorescein in the SCS was identified. […] This was likely due to the long-lived presence of viscous CMC gel in the SCS (as evidenced by the SCS remaining open for many days), which can slow diffusion of fluorescein out of the SCS.

SCS of live rabbits [4] = test: Collection of fluorescein by different clearance routes after SCS injection; format: in vivo, New Zealand White rabbit; conditions: one hour post-injection
Procedure: To assess contributions of different routes of clearance, fluorescein from multiple collection sites was collected after SCS injection in vivo. The fluorescein collected from these collection sites was determined over time. The amount of fluorescein leaving through the injection site was found by subtracting site [i] from site [ii] (i.e., difference in fluorescein collected from sclera anterior to the equator without and with injection site plugged). And the amount of fluorescein leaving through blood was found by subtracting site [iv] from site [iii] (i.e., difference in fluorescein collected from sclera posterior to the equator with and without the vortex vein transected). Though the physiological data are inherently noisy, they should nevertheless enable an order of magnitude characterization of the underlying processes (which can be compared to a theoretical model of transport below). The amount of fluorescein collected over time is depicted at FIG. 17.
For this terminal experiment, the rabbit (N=4 eyes per group) was anesthetized with a subcutaneous injection of ketamine/xylazine before microneedle injection; additional injections were given every 30 minutes to maintain anesthesia. Subcutaneous injection of 60 mL saline was also given on the rump to counteract fluid loss. The amount of fluorescein exiting the eye was determined by collecting samples over time from [i] sclera anterior to the equator; [ii] anterior sclera with injection site plugged; [iii] sclera posterior to the equator; and [iv] posterior sclera with vortex vein transected.
Prior to microneedle injection, the supranasal conjunctiva was dissected off the sclera. […] In [i] anterior sclera and [iii] posterior sclera conditions, samples were collected for 1 hour by swabbing the space with a 1 cm×1 cm paper tissue (Kimwipe, Kimberley-Clark, Irving, Tex.). Care was taken to swab only anterior or posterior to the equator, depending on the condition. The tissue was then placed in 1 mL HBSS until analysis.
To determine the amount of fluorescein leaving [ii] the anterior sclera with injection site plugged, a similar experiment was performed. Immediately post-injection, the injection site was plugged by sealing the microneedle into sclera with cyanoacrylate glue (Loctite 4013, Düsseldorf, Germany). Other methods were the same as above.
Heparin (5 mL of 10,000 IU/mL; Hospira, Lake Forest, Ill.) was given intravenously prior to the start of the experiment to prevent coagulation. […] A transfer pipette was used to collect blood exiting the vortex vein for 1 hour. The volume of collected blood was recorded, and HBSS was added to reach a final volume of 2 mL per sample for analysis.
Immediately after the last time point, all animals were euthanized by injection of pentobarbital through the marginal ear vein. Eyes were enucleated to determine the amount of fluorescein remaining (i) within the tissue (including SCS), and (ii) in aqueous humor, vitreous humor, and lens. The Kimwipe paper tissue and ocular tissue samples were placed in HBSS at 4° C. for 2 days to allow fluorescein to diffuse out and equilibrate with the HBSS. The amount of fluorescein in all samples was measured using a multi-plate reader (Excitation: 494 nm, Emission: 521 nm, Synergy H4, BioTek, Winooski, Vt.). In a separate experiment involving incubation of Kimwipes in a known amount of fluorescein, we found no evidence of loss in extracting fluorescein from the Kimwipe, and no leaching of fluorescent species out of the Kimwipe.

SCS of live rabbits [5] = conditions: New Zealand White, rabbit, in vivo, 3 min
SCS of live rabbits [6] = test: SCS clearance kinetics by fundus imaging
[7] = value assumed or taken from literature; cited from earlier work

| SMILES | ratio of area covered by fluorescein versus particles [1] | peak area coverage of the fluorescent species (of visible SCS area) (rabbit SCS in vivo [2]; 50 μL SCS injection in HBSS) | total clearance of the fluorescently-tagged formulation excipient from the SCS (rabbit SCS in vivo [2]; HBSS = fluorescein in HBSS) | total clearance of fluorescein from the SCS (rabbit SCS in vivo [3]; injected in 5% CMC solution) | total clearance of fluorescein from the SCS (rabbit SCS in vivo [3]; injected in HBSS) | fluorescein exited via perivascular drainage around the vortex vein (SCS of live rabbits [4]) | fluorescein exited via the injection site (SCS of live rabbits [4]) | fluorescein found in blood (SCS of live rabbits [4]) | fluorescein passed transsclerally to the subconjunctival space (anterior and posterior combined) (SCS of live rabbits [4]) | fluorescein still within tissue (sclera, choroid, SCS, etc.), of total injected (SCS of live rabbits [4]) | fluorescein unaccounted for (SCS of live rabbits [4]) | area of the visible SCS occupied (SCS of live rabbits [5]) | clearance time constant (τclearance) (SCS of live rabbits [6]; exponential decay fit of fundus fluorescence) | total clearance time from SCS (SCS of live rabbits [6]; fluorescence no longer visible) | diffusivity [7] |
| --- | --- | --- | --- | --- | --- | --- | --- | --- | --- | --- | --- | --- | --- | --- | --- |
| O=C1OC2(c3ccc(O)cc3Oc3cc(O)ccc32)c2ccccc21 [fluorescein] | 2.05±0.24 | 66% | ≤ 2 days | 2.7 ± 0.7 days | 0.33 ± 0.05 days | 2.5±0.3% | 1.3±4% | 6.3±4% | 15±0.3% | 46±18% | About 28% | 56±6% | 4.3 ± 0.4 h | ≤ 24 h | – |
| C=C(CC)C(=O)c1ccc(OCC(=O)O)c(Cl)c1Cl [ethacrynic acid] | – | – | – | – | – | – | – | – | – | – | – | – | – | – | 5×10^−6 cm^2/s |
